Data reported in US20230255961A1, “Rotomeric Isomers of 4-Alkyl-5-Heteroaryl-3H-1,2-Dithiole-3-Thiones” (ST IP Holding AG, priority 2020, published 2023).

What was measured:
PTGS1 = test: Human oxidative stress RT2 Profiler PCR array in HGEPp cells: PTGS1; assay type: cell-based; conditions: HGEPp cells pretreated 24 h at 100 μg/ml; ΔΔCt
Description: (§1) RT-PCR was performed on an iCycler.

SOD1 = test: Human oxidative stress RT2 Profiler PCR array in HGEPp cells: SOD1; assay type: cell-based; conditions: HGEPp cells pretreated 24 h at 100 μg/ml; ΔΔCt
Description: as §1

GPX4 = test: Human oxidative stress RT2 Profiler PCR array in HGEPp cells: GPX4; conditions: HGEPp cells pretreated 24 h at 100 μg/ml; ΔΔCt
Description: (§3) Pooled primary HGEPp cells were propagated in CnT-Prime epithelial culture medium provided by CellnTec on 100 mm petri dishes coated with 30 mg/ml Type I rat tail collagen (BD Biosciences) diluted in Duibecco's phosphate-buffered saline (DPBS). HGEPp cells were grown in 12×60 mm Nunc™ Cell Culture dishes at a 2.5×10^4 cells/cm2 density concentration.
(§4) All dosing solutions contained 0.3% of DMSO which is well below the maximum tolerated DMSO percent of 0.8% for HGEPp cells.
(§5) The RN-easy UCP Micro Kit was used to purify mRNA from the HGEPp cells.
(§6) The assay was reliably used to analyze expression levels of 84 genes related to oxidative stress in HGEPp cells pre-treated with ST-617-APT, ST-617-DPT and the rotomeric complexes at 100 μg/ml for 24 h. The cDNA from above was mixed with the RT2 SYBR Green fluor Mastermix and aliquoted into the wells of the RT2 Profiler PCR Array. RT-PCR was performed on an iCycler. Gene expression was compared using et values and the results were calculated using ΔΔ Ct method with normalization to the average expression levels of the five common genes (ACTB, B2M, GAPDH, HPRT, and RPL13A).

ALOX12 = test: Human oxidative stress RT2 Profiler PCR array in HGEPp cells: ALOX12; assay type: cell-based; conditions: HGEPp cells pretreated 24 h at 100 μg/ml; ΔΔCt
Description: as §1

NQO1 = test: Human oxidative stress RT2 Profiler PCR array in HGEPp cells: NQO1; assay type: cell-based; conditions: HGEPp cells pretreated 24 h at 100 μg/ml; ΔΔCt
Description: as §1

GCLM = test: Human oxidative stress RT2 Profiler PCR array in HGEPp cells: GCLM; assay type: cell-based; conditions: HGEPp cells pretreated 24 h at 100 μg/ml; ΔΔCt
Description: as §1

GSTP1 = test: Human oxidative stress RT2 Profiler PCR array in HGEPp cells: GSTP1; assay type: cell-based; conditions: HGEPp cells pretreated 24 h at 100 μg/ml; ΔΔCt
Description: as §1

GCLC = test: Human oxidative stress RT2 Profiler PCR array in HGEPp cells: GCLC; assay type: cell-based; conditions: HGEPp cells pretreated 24 h at 100 μg/ml; ΔΔCt
Description: as §1

PRDX2 = test: Human oxidative stress RT2 Profiler PCR array in HGEPp cells: PRDX2; conditions: HGEPp cells pretreated 24 h at 100 μg/ml; ΔΔCt
Description: as §3, §4, §5, §6

GPX1 = test: Human oxidative stress RT2 Profiler PCR array in HGEPp cells: GPX1; assay type: cell-based; conditions: HGEPp cells pretreated 24 h at 100 μg/ml; ΔΔCt
Description: as §1

MPO = test: Human oxidative stress RT2 Profiler PCR array in HGEPp cells: MPO; conditions: HGEPp cells pretreated 24 h at 100 μg/ml; ΔΔCt
Description: as §3, §4, §5, §6

UCP2 = test: Human oxidative stress RT2 Profiler PCR array in HGEPp cells: UCP2; assay type: cell-based; conditions: HGEPp cells pretreated 24 h at 100 μg/ml; ΔΔCt
Description: as §1

GTF2i = test: Human oxidative stress RT2 Profiler PCR array in HGEPp cells: GTF2i; assay type: cell-based; conditions: HGEPp cells pretreated 24 h at 100 μg/ml; ΔΔCt
Description: as §1

HGEPp cells = test: ROS production in H2O2-induced oxidatively stressed HGEPp cells; assay type: cell-based, human; conditions: HGEPp cells pretreated 24 hrs at 100 μg/mL prior to 0.3 mM H2O2 for 4 h; positive control 139%
Description: That same assay was carried out on the rotomer compositions prepared in Examples 1-11 above to determine their effect on protecting primary human gingival epithelial cells (HGEPp) cells from oxidative damage induced by hydrogen peroxide (H2O2).

rat cortical neurons = test: Caspase 3/7 activation assay, OGD-induced neurotoxicity in rat cortical neurons; assay type: cell-based; conditions: for OGD induced caspase 3/7 activation / neuroprotection: 100 μg/ml, 1 h incubation eighteen hours prior to OGD, FIG. 7
Description: The effect of the rotomer complexes of Examples 1, 2, 3 and 9 on neurotoxicity induced by oxygen glucose deprivation (OGD) was tested in a caspase 3/7 activation assay. The assay was applied to freshly isolated rat cortical neurons cultured in 96-well-plates and exposed to the compounds at 100 μg/ml.
In vitro ischemic injury was induced in rat primary neuronal culture by oxygen-glucose deprivation for 2 hours. Neurons were incubated with the compounds for 1 hour eighteen hours prior to the OGD induction. Dizocilpine (MK801) 10 μM was used as positive neuroprotection control. After treatments, incubated with three optically compatible fluorescent dyes, and subsequently analyzed with BD Pathway 855 (Becton Dickinson). Cell parameters associated with caspase 3/7 activation—indicative of pre-lethal cytotoxic effects—were measured by high content screening at single cell level.
Primary cultures of cortical neurons were isolated from cerebral cortices of Sprague-Dawley rat fetuses at embryonic day 18. Brains were removed and after removing the meninges, the tissues were dissected under a binocular microscope. Neurons were enzymatically dispersed by trypsin 0.2% and DNAse […] digestion for 10 min at 37° C. plated in poly-L-lysine wells and incubated with B27 supplemented neurobasal medium.
Cortical neurons of 18 days old embryonic rats were plated in poly-1-lysine coated 96-well plates (30,000 cells per well). Cells were maintained in neurobasal medium supplemented with B-27 component: for 5 days at 37° C. in a humidified 5% CO2 atmosphere. At day 5, cells were subjected to oxygen glucose deprivation (OGD) for 2 hours at 37° C. The cultures were placed in an […] chamber (Billops-Rothenberg) and incubated in neurobasal medium lacking glucose and B27 factor and aerated with an anaerobic gas mixture (94.7% N2. 5% CO2, 0.3% O2) to remove residual oxygen. Control cultures were kept in the original neurobasal medium but were submitted to the anaerobic conditions. At the end of the OGD conditions, the cells were removed from the anaerobic chamber, the OGD medium was replaced with neurobasal medium containing glucose, and the cells were incubated for an additional 24 h. The test compounds were added to the neurons eighteen hours prior to the OGD induction and maintained for 1 h. Replicate cultures were treated as described above with dizocilpine (MK801) as positive control of neuroprotection. The neuroprotective potential of the four rotomer complexes was determined by a caspase 3/7 activation assay.
(§2) Caspase 3/7 activation was determined using The CellEvent® Caspase-3/7 Green Detection Reagent which is intrinsically a non-fluorescent peptide that inhibits the ability of the dye to bind to DNA. However, after caspase-3/7 activation in apoptotic cells, the peptide is cleaved allowing the dye to bind to DNA producing a bright, fluorogenic response. Cell were stained with 5 μM reagent, washed 3 times and measured at 488 nm/530 nm Ex/Em. This dye permits the direct quantification of apoptotic cells.

[1] = system: mouse neonatal primary cardiomyocyte; conditions: 100 μg/ml, 4 hours prior to OGD, during 18 h OGD and 24 h recovery; FIG. 9
Description: as §2

[2] = system: oxidative stress-related genes in HGEPp cells; test: Human oxidative stress RT2 Profiler PCR array in HGEPp cells: statements over several genes; conditions: for SOD1, NQ01, GCLC, GSTP1 and GCLM; 100 μg/ml, 24 h
Description: as §3, §4, §5, §6

Compound | PTGS1 down regulation relative fold change (PTGS1) [fold] | SOD1 up regulation relative fold change (SOD1) [fold] | GPX4 up regulation relative fold change (GPX4) [fold] | ALOX12 up regulation relative fold change (ALOX12) [fold] | NQO1 up regulation relative fold change (NQO1) [fold] | GCLM up regulation relative fold change (GCLM) [fold] | GSTP1 up regulation relative fold change (GSTP1) [fold] | GCLC up regulation relative fold change (GCLC) [fold] | PRDX2 down regulation relative fold change (PRDX2) [fold] | GPX1 up regulation relative fold change (GPX1) [fold] | MPO up regulation relative fold change (MPO) [fold] | UCP2 down regulation relative fold change (UCP2) [fold] | GTF2i down regulation relative fold change (GTF2i) [fold] | ROS level relative to Normal (100%, optical density baseline) (HGEPp cells) [%] | OGD induced caspase 3/7 activation (rat cortical neurons) | neuroprotection (rat cortical neurons) | cardioprotection [1] | prevention of OGD-induced apoptosis based on caspase activation (rat cortical neurons; 10 μM, OGD 2 hours, measured 24 h after exposure) [%] | up-regulation compared to ST-617-DPI and ST-617-DPI [2]
Cc1c(-c2cncc[n+]2C(=O)c2ccccc2)ssc1=S.[Cl-] [Example 6, benzoyl chloride complex of oltipraz] | 0.28 | 3.92 | 2.91 | 5.93 | 3.17 | 2.25 | 2.74 | 3.31 | 0.31 | 4.43 | 3.05 | 0.28 | 0.36 | 131 |  |  |  |  | 
Cc1c(-c2cnccn2)ssc1=S.Cl [Example 1, hydrochloride complex of oltipraz] |  |  |  |  |  |  |  |  |  |  |  |  |  | 128 | significantly reduced | high degree of neuroprotection | significant degree of cardioprotection |  | 
Cc1c(-c2cncc[n+]2C)ssc1=S.[I-] [Example 5, methyl iodide complex of oltipraz] | 0.28 | 3.89 | 2.85 | 6.04 | 3.15 | 2.27 | 2.90 | 3.38 | 0.32 | 4.98 | 3.18 | 0.29 | 0.33 | 134 |  |  |  |  | 
C[C@]12N[C@H](Cc3ccccc31)c1ccccc12 [MK801, Dizocilpine, reference compound] |  |  |  |  |  |  |  |  |  |  |  |  |  |  |  |  |  | 28 | 
Cc1c(-c2cnccn2)ssc1=S.O=S(=O)(O)CCO [Example 10, isethionic acid complex of oltipraz] |  |  |  |  |  |  |  |  |  |  |  |  |  | 113 |  |  |  |  | significantly higher up-regulation
CC(=O)[n+]1ccncc1-c1ssc(=S)c1C.[Cl-] [Example 3, acetyl chloride complex of oltipraz] | 0.29 | 4.24 | 2.83 | 6.33 | 3.36 | 2.38 | 2.87 | 3.27 | 0.33 | 4.76 | 3.10 | 0.26 | 0.32 | 129 | significantly reduced | high degree of neuroprotection | significant degree of cardioprotection |  | 
thiobenzoic acid complex of oltipraz [Example 11] |  |  |  |  |  |  |  |  |  |  |  |  |  | 116 |  |  |  |  | 
Cc1c(-c2cncc[n+]2OC2=CC(=O)OC2=O)ssc1=S [Example 2, hydroxymaleate anhydride complex of oltipraz] |  |  |  |  |  |  |  |  |  |  |  |  |  | 116 | significantly reduced | high degree of neuroprotection | significant degree of cardioprotection |  | 
CCCC[n+]1ccncc1-c1ssc(=S)c1C.[Cl-] [Example 4, n-butyl chloride complex of oltipraz] | 0.27 | 4.15 | 2.96 | 5.82 | 3.34 | 2.38 | 2.88 | 3.35 | 0.32 | 4.80 | 3.20 | 0.25 | 0.35 | 128 |  |  |  |  | 
